We go through four sequences from US7763426B2, “Probes and methods for detection of Escheridia coli and antibiotic resistance” (priority 2004, dated 2010).

For one series, the system named is Enterococcus 16S rRNA. Put plainly: Amperometric detection of bacterial 16S rRNA, 65° C. hybridization (Examples 2, 3). It counts as binding, Enterococcus faecalis. The settings on record: for sensitivity of electrochemical sensor assay (cells detected): five-fold serial dilutions of enterococcal cells, capture probe EF207C, EF165D 5′-fluorescein, EF171D 3′-fluorescein.

Another series deals with E. coli 16S rRNA. The description is as above. The series is classed as binding, Escherichia coli. The settings on record: for sensitivity of electrochemical sensor assay (cells detected): five-fold serial dilutions of E. coli cells, capture probe EC434C, 5′-fluorescein 6 nt gap vs 3′-fluorescein 0 nt gap.
Setting [1] is: 3′-fluorescein and continuity of hybridization sites vs 5′-fluorescein with gap.

“CCGCGGGTCCATCCATCAGCGACACCCGAAAGCGC (DNA CCGCGGGTCCATCCATCAGCGACACCCGAAAGCGC; sugars by position and backbone not given here; further chemistry not fully specified; listed as Enterococcus sp.) [EF171D]”: the improvement in sensitivity with Enterococcus 16S rRNA (setting [1]) is on record as 24-25 fold. In addition, the “sensitivity of electrochemical sensor assay (cells detected)” value (from here on “sensitivity … (cells detected)”) in the series on Enterococcus 16S rRNA is on record as 9,400 cells.

Regarding “CTGAAAGTACTTTACAACCCGAAGGCCTTCTTCAT (DNA CTGAAAGTACTTTACAACCCGAAGGCCTTCTTCAT; DNA, backbone and methylation of C not given here; listed as Escherichia coli) [EC393D]”, the “sensitivity … (cells detected)” value in the series with E. coli 16S rRNA is given as 6,200 cells.

Regarding “GTCCATCCATCAGCGACACCCGAAAGCGCCTTTCA (DNA GTCCATCCATCAGCGACACCCGAAAGCGCCTTTCA; sugars by position and backbone not given here; listed as Enterococcus sp.) [EF165D]”, the “sensitivity … (cells detected)” value in the series with Enterococcus 16S rRNA is 232,000 cells.

With “TCCCCGCTGAAAGTACTTTACAACCCGAAGGCCTT (DNA TCCCCGCTGAAAGTACTTTACAACCCGAAGGCCTT; sugars by position and backbone not given here; further chemistry not fully specified; listed as Escherichia coli) [EC399D]”, the improvement in sensitivity with E. coli 16S rRNA (setting [1]) is listed as 24-25 fold. Also, the “sensitivity … (cells detected)” value in the series with E. coli 16S rRNA was 260 cells.
